These compounds were tested against T1, γ-secretase (Homo sapiens, UniProt P49768) (assay: Cell-Based γ-Secretase Assay (inhibition of Aβ(1-42) production, Meso Scale detection)). Settings: Human SH-SY5Y neuroblastoma cells overexpressing SPA4CT; overnight incubation; Aβ(42) in media.
T1 construct: Human SH-SY5Y neuroblastoma cells overexpressing the direct β-secretase substrate SPA4CT; endogenous in cells; host or cells: human SH-SY5Y neuroblastoma cells (stably overexpressing the substrate SPA4CT, induced with sodium butyrate)
Method: Cell-Based γ-Secretase Assay
Human SH-SY5Y neuroblastoma cells overexpressing the direct β-secretase substrate SPA4CT were induced with sodium butyrate (10 mM) for 4 hours prior to plating. Cells were plated at 35,000 cells/well/100 μl in 96-well plates in phenol red-free MEM/10% FBS, 50 mM HEPES, 1% Glutamine and incubated for 2 hrs at 37° C., 5% CO2.
Compounds for testing were diluted into Me2SO to give a ten point dose-response curve. Typically 10 μl of these diluted compounds in Me2SO were further diluted into 182 μl dilution buffer (phenol red-free MEM/10% FBS, 50 mM HEPES, 1% Glutamine) and 10 μl of each dilution was added to the cells in 96-well plates (yielding a final Me2SO concentration of 0.5%). Appropriate vehicle and inhibitor controls were used to determine the window of the assay.
After incubation overnight at 37° C., 5% CO2, 25 μl and 50 μl media were transferred into a standard Meso avidin-coated 96-well plate for detection of Aβ(40) and Aβ(42) peptides, respectively. 25 μl Meso Assay buffer (PBS, 2% BSA, 0.2% Tween-20) was added to the Aβ(40) wells followed by the addition of 25 μl of the respective antibody premixes to the wells:
Aβ(40) premix: 1 μg/ml ruthenylated G2-10 antibody, 4 μg/ml biotinylated 4G8 antibody diluted in Origen buffer
Aβ(42) premix: 1 μg/ml ruthenylated G2-11 antibody, 4 μg/ml biotinylated 4G8 antibody diluted in Origen buffer
(Biotinylated 4G8 antibody supplied by Signet Pathology Ltd; G2-10 and G2-11 antibodies supplied by Chemicon)
After overnight incubation of the assay plates on a shaker at 4° C., the Meso Scale Sector 6000 Imager was calibrated according to the manufacturer's instructions. After washing the plates 3 times with 150 μl of PBS per well, 150 μl Meso Scale Discovery read buffer was added to each well and the plates were read on the Sector 6000 Imager according to the manufacturer's instructions.
LD50 and IC50 values for inhibition of Aβ(40) and Aβ(42) were calculated by nonlinear regression fit analysis using the appropriate software (eg. Excel fit). The total signal and the background were defined by the corresponding Me2SO and inhibitor controls.

SMILES	IC50 [nM]
Cc1ccc(C(C)(C)C)cc1Nc1ccnc(N2CCC(Cc3ccncc3)CC2)n1 [Example 4]	500 to 1500
COc1cnc(N2CCC(Cc3ccncc3)CC2)nc1Nc1cc(N(C)C)ccc1C [Example 6]	1500 to 3000
Cc1cc(C)c(N(C)C)cc1Nc1ccnc(N2CCC(Cc3ccncc3)CC2)n1 [Example 10]	1500 to 3000
CCOc1cc(C)c(Nc2nc(N3CCC(Cc4ccncc4)CC3)ncc2Cl)cc1C(C)C [Example 11]	500 to 1500
Cc1ccc(OC(C)C)cc1Nc1ccnc(N2CCC(Cc3ccncc3)CC2)n1 [Example 12]	500 to 1500
COC(=O)c1cc(Nc2cc(C(C)(C)C)ccc2C)nc(N2CCC(Cc3ccncc3)CC2)n1 [Example 18]	500 to 1500
Cc1ccc(C(C)(C)C)cc1Nc1nc(N2CCC(Cc3ccncc3)CC2)ncc1F [Example 22]	1500 to 3000
